Assays:
[1] = test system: Brca2 deficient (Cre24) ES cells; test: Clonogenic survival, continuous exposure, Brca2 deficient ES cells; type: cell-based; conditions: ratio of SF50 wild type / Brca2 deficient ES cells
Method: (§1) To assess the stand alone activity of a PARP inhibitor on Braca 1 and 2 deficient cells the following protocols were used.
(§2) Compound (4) was dissolved in DMSO at 10 mM and stored at −20° C. in the dark.
(§3) VC8 cells and the mouse Brca2 BAC complemented derivatives were as described in M. Kraakman-van der Zwet, et al., Mol Cell Biol 22, 669-79 (2002)). ES cells defective in Brca2 function have been described previously (Tutt, et al., EMBO Rep 3, 255-60 (2002)). The construction of ES cells defective in Brca1 will be described elsewhere but have previously been validated (Foray, et al., Embo J, 22, 2860-71 (2003)).
(§4) For measurement of cellular sensitivity to a PARP inhibitor (compound 4), cell cultures in exponential growth were trypsinised and seeded at various densities in 6-well plates onto Mitomycin C inactivated mouse embryonic fibroblasts and where appropriate treated with the test compound after 18 hours. For continuous exposure, cells were re-fed every 4 days with fresh medium and inhibitor. After 10-14 days, cells were washed with PBS, fixed in methanol and stained with crystal violet. Colonies containing greater than approximately 50 cells were counted. Experiments were performed at least three times in triplicate.

[2] = test system: Brca1 wild type (11CO) ES cells; test: Clonogenic survival, continuous exposure, Brca1 wild type ES cells; type: cell-based; conditions: matched wild type cells (Brca1), clonogenic assay, continuous exposure (FIG. 1A)
Method: as §1, §2, §3, §4

[3] = test system: Brca1 deficient (Cre10) ES cells; test: Clonogenic survival, continuous exposure, Brca1 deficient ES cells; type: cell-based
Method: as §1, §2, §3, §4

[4] = test system: Chinese hamster ovary cells deficient in Brca2 (VC8); test: Clonogenic survival, continuous exposure, Brca2 deficient VC8 cells; type: cell-based
[5] = test system: Brca2-complemented derivative (VC8-BAC); test: Clonogenic survival, continuous exposure, Brca2-complemented VC8-BAC cells; type: cell-based, Chinese hamster; conditions: matched control VC8-BAC, clonogenic assay (FIG. 2)
[6] = test system: Brca2 wild type (D3) ES cells; test: Clonogenic survival, continuous exposure, Brca2 wild type ES cells; type: cell-based; conditions: matched wild type cells (Brca2), clonogenic assay, continuous exposure (FIG. 1B)
Method: as §1, §2, §3, §4

## O=C(c1cc(Cc2n[nH]c(=O)c3ccccc23)ccc1F)N1CCCNCC1 [compound 4, 4-[3-([1,4]diazepane-1-carbonyl)-4-fluorobenzyl]-2H-phthalazin-1-one]
[1]
  fold enhanced sensitivity of Brca2 mutant cells compared to wild type cells: 1,500 fold
[2]
  SF50 (dosage at which 50% of cells survived): 7 µM
[3]; cells deficient in Brca1, clonogenic assay, continuous exposure (FIG. 1A)
  SF50 (dosage at which 50% of cells survived): 15 nM
[3]; ratio of SF50 wild type / Brca1 deficient
  fold enhanced sensitivity of Brca1 mutant cells compared to wild type cells: 467 fold
[4]; Brca2 deficient VC8 line, clonogenic assay (FIG. 2)
  SF50 (dosage at which 50% of cells survived): 50 nM
[4]; ratio of SF50 VC8-BAC / VC8
  fold enhanced sensitivity of Brca2 mutant cells compared to wild type cells: 600 fold
[5]
  SF50 (dosage at which 50% of cells survived): 30 µM
[6]
  SF50 (dosage at which 50% of cells survived): 18 µM

— US11160803B2, “Phthalazinone derivatives” (KUDOS PHARMACEUTICALS LIMITED, priority 2003, dated 2021)
